Results reported in patent US10308959B2, “Methods, systems, and compositions relating to MiRNA-146a” (Henry Ford Health System, priority 2013, dated 2019).

Key:
Type in all cases: cell-based
[1] = system: primary rat embryonic OPCs; assay: QrtPCR of mRNA (MBP, p38MAPK) in primary rat embryonic OPCs; settings: for expression of MBP, mRNA and protein levels: in the presence of polymyxin B (50 μg/ml), 50 and 100 ng/ml, 4 days
Experimental: (§1) Primary rat embryonic OPCs were isolated and prepared according to the method known to the skilled artisan. Briefly, on embryonic day 17, rat embryos were removed from a pregnant Wistar rat in a laminar flow hood. The cortices were dissected out by using microdissecting scissors, rinsed twice in Hank's buffered salt solution and dissociated after digesting with 0.01% trypsin and DNase at 37° C. for 15 min. The digested cells were washed twice, filtered through a 70 mm nylon cell strainer and plated with DMEM containing 20% fetal bovine serum (FBS) in poly-D-lysine coated T75 cell culture flasks (approximately 10 million cells per flask). The cells grew to confluence for 10 days and then were placed on the shaker at 200 r.p.m. at 37° C. for 1 h to remove microglial cells. Subsequently, the cells were left on the shaker for an additional 18-20 h to collect OPCs. The collected OPCs were plated in untreated Petri dishes for 1 h to remove contaminated microglia and astrocytes which attach to the Petri dish more efficiently than OPCs. The unattached OPCs were transferred onto poly-D,L-ornithine-coated Petri dishes at a cell density of 10^4 per/cm2 with a basal chemically defined medium (“BDM”) containing 10 ng/ml platelet-derived growth factor-alpha (“PDGF-AA”) and 10 ng/ml basic fibroblast growth factor (“bFGF”) for 7-10 days.
(§2) The mouse primary cultures of OPCs were conditionally immortalized by transformation with a temperature-sensitive large T-antigen into a mouse OPC cell line-N20.1 (21). N20.1 cells were provided by Dr. Anthony Campagnoni (University of California at Los Angeles). N20.1 cells were grown and maintained in Dulbecco's modified Eagle's medium (“DMEM”)/F12 with 1% fetal bovine serum (“FBS”) and G418 (100 μg/ml) at 37° C. For N20.1 cells, transient transfections were performed with Nucleofector kit according to the manufacturer's protocol (Amaxa, Germany). The cells (10^6) were mixed with 1 μg plasmid DNA or 100 pmol of siRNA/oligo nucleotides and pulsed according to the manufacturer's instruction. […]

[2] = system: mouse OPC cell line-N20.1; assay: QrtPCR of mRNA (MBP, p38MAPK) in N20.1 cells; settings: for expression of MBP, mRNA and protein levels: in the presence of polymyxin B (50 μg/ml), 50 and 100 ng/ml, 4 days
Experimental: The mouse primary cultures of OPCs were conditionally immortalized by transformation with a temperature-sensitive large T-antigen into a mouse OPC cell line-N20.1 (21). N20.1 cells were provided by Dr. Anthony Campagnoni (University of California at Los Angeles). N20.1 cells were grown and maintained in Dulbecco's modified Eagle's medium (“DMEM”)/F12 with 1% fetal bovine serum (“FBS”) and G418 (100 μg/ml) at 37° C. For N20.1 cells, transient transfections were performed with Nucleofector kit according to the manufacturer's protocol (Amaxa, Germany). The cells (10^6) were mixed with 1 μg plasmid DNA or 100 pmol of siRNA/oligo nucleotides and pulsed according to the manufacturer's instruction. The transfected cells were immediately plated into Petri dishes with DMEM containing 1% FBS and incubated at 37° C. for days. Primary rat embryonic OPCs were transiently transfected with Lipofectamine (Invitrogen) overnight, according to the manufacturer's protocol (see Chew et al., J. Neuroscience 30(33): 11011-11027 (2010)). Amounts of DNA and siRNA/oligo nucleotides were used as recommended by the manufacturer. The control plasmid (pcDNA3) was used as a mock transfected control for miR-146a expression vector transfection, and control siRNA (Ambion, a random mixture of oligonucleotides) was used as a mock transfected control for both transfections with Tβ4siRNA and anti-miR-146a inhibitor nucleotides. The cells (10^4 cells/cm^2) were treated with 0, 25, 50, 100 ng/ml of Tβ4 (RegeneRx Biopharmaceuticals Inc., Rockville, Md.). The cells were incubated at 37° C. and fed every 2 days with fresh medium (DMEM containing 1% FBS for N20.1 cells and BDM for primary rat embryonic OPCs) with and without Tβ4 for 4 days. […]
After qrtPCR, agarose gel electrophoresis was performed to verify the quality of the qrtPCR products. No secondary products were detected. […] Values obtained from three independent experiments were analyzed relative to gene expression data using the 2^−ΔΔCT method.

[3] = system: primary rat embryonic OPCs; assay: miR-146a quantification by qrtPCR in primary rat embryonic OPCs
Experimental: (§3) Primary rat embryonic OPCs were isolated and prepared according to the method known to the skilled artisan. Briefly, on embryonic day 17, rat embryos were removed from a pregnant Wistar rat in a laminar flow hood. The cortices were dissected out by using microdissecting scissors, rinsed twice in Hank's buffered salt solution and dissociated after digesting with 0.01% trypsin and DNase at 37° C. for 15 min. The digested cells were washed twice, filtered through a 70 mm nylon cell strainer and plated with DMEM containing 20% fetal bovine serum (FBS) in poly-D-lysine coated T75 cell culture flasks (approximately 10 million cells per flask). The cells grew to confluence for 10 days and then were placed on the shaker at 200 r.p.m. at 37° C. for 1 h to remove microglial cells. Subsequently, the cells were left on the shaker for an additional 18-20 h to collect OPCs. The collected OPCs were plated in untreated Petri dishes for 1 h to remove contaminated microglia and astrocytes which attach to the Petri dish more efficiently than OPCs. The unattached OPCs were transferred onto poly-D,L-ornithine-coated Petri dishes at a cell density of 10^4 per/cm2 with a basal chemically defined medium (“BDM”) containing 10 ng/ml platelet-derived growth factor-alpha (“PDGF-AA”) and 10 ng/ml basic fibroblast growth factor (“bFGF”) for 7-10 days. […]

[4] = system: mouse OPC cell line-N20.1; assay: miR-146a quantification by qrtPCR in N20.1 cells
Experimental: The mouse primary cultures of OPCs were conditionally immortalized by transformation with a temperature-sensitive large T-antigen into a mouse OPC cell line-N20.1 (21). N20.1 cells were provided by Dr. Anthony Campagnoni (University of California at Los Angeles). N20.1 cells were grown and maintained in Dulbecco's modified Eagle's medium (“DMEM”)/F12 with 1% fetal bovine serum (“FBS”) and G418 (100 μg/ml) at 37° C. For N20.1 cells, transient transfections were performed with Nucleofector kit according to the manufacturer's protocol (Amaxa, Germany). The cells (10^6) were mixed with 1 μg plasmid DNA or 100 pmol of siRNA/oligo nucleotides and pulsed according to the manufacturer's instruction. The transfected cells were immediately plated into Petri dishes with DMEM containing 1% FBS and incubated at 37° C. for days. Primary rat embryonic OPCs were transiently transfected with Lipofectamine (Invitrogen) overnight, according to the manufacturer's protocol (see Chew et al., J. Neuroscience 30(33): 11011-11027 (2010)). […]
The cDNA for each miR and TaqMan assay were performed in triplicate according to the manufacturer's protocol specified in Applied Biosystems ViiA™ 7 Real-Time PCR System (Applied Biosystem). […] Values obtained from three independent experiments were analyzed relative to gene expression data using the 2^−ΔΔCT method.

[5] = system: primary rat embryonic OPCs; assay: Western blot of MBP, TLR signaling mediators and MAPKs in primary rat embryonic OPCs
Experimental: as §1
The mouse primary cultures of OPCs were conditionally immortalized by transformation with a temperature-sensitive large T-antigen into a mouse OPC cell line-N20.1 (21). N20.1 cells were provided by Dr. Anthony Campagnoni (University of California at Los Angeles). N20.1 cells were grown and maintained in Dulbecco's modified Eagle's medium (“DMEM”)/F12 with 1% fetal bovine serum (“FBS”) and G418 (100 μg/ml) at 37° C. For N20.1 cells, transient transfections were performed with Nucleofector kit according to the manufacturer's protocol (Amaxa, Germany). The cells (10^6) were mixed with 1 μg plasmid DNA or 100 pmol of siRNA/oligo nucleotides and pulsed according to the manufacturer's instruction. The transfected cells were immediately plated into Petri dishes with DMEM containing 1% FBS and incubated at 37° C. for days. Primary rat embryonic OPCs were transiently transfected with Lipofectamine (Invitrogen) overnight, according to the manufacturer's protocol (see Chew et al., J. Neuroscience 30(33): 11011-11027 (2010)). Amounts of DNA and siRNA/oligo nucleotides were used as recommended by the manufacturer. The control plasmid (pcDNA3) was used as a mock transfected control for miR-146a expression vector transfection, and control siRNA (Ambion, a random mixture of oligonucleotides) was used as a mock transfected control for both transfections with Tβ4siRNA and anti-miR-146a inhibitor nucleotides. The cells (10^4 cells/cm^2) were treated with 0, 25, 50, 100 ng/ml of Tβ4 (RegeneRx Biopharmaceuticals Inc., Rockville, Md.). The cells were incubated at 37° C. and fed every 2 days with fresh medium (DMEM containing 1% FBS for N20.1 cells and BDM for primary rat embryonic OPCs) with and without Tβ4 for 4 days. To test for LPS contamination in Tβ4, the cells were cultured in the presence of the LPS inhibitor polymyxin B (50 μg/ml) followed by treatment with Tβ4. Tβ4 (100 ng/ml) was boiled for 10 minutes in order to denature Tβ4 protein and was used as a negative control. […]

[6] = system: mouse OPC cell line-N20.1; assay: Western blot of MBP, TLR signaling mediators and MAPKs in N20.1 cells
Experimental: The mouse primary cultures of OPCs were conditionally immortalized by transformation with a temperature-sensitive large T-antigen into a mouse OPC cell line-N20.1 (21). N20.1 cells were provided by Dr. Anthony Campagnoni (University of California at Los Angeles). N20.1 cells were grown and maintained in Dulbecco's modified Eagle's medium (“DMEM”)/F12 with 1% fetal bovine serum (“FBS”) and G418 (100 μg/ml) at 37° C. For N20.1 cells, transient transfections were performed with Nucleofector kit according to the manufacturer's protocol (Amaxa, Germany). The cells (10^6) were mixed with 1 μg plasmid DNA or 100 pmol of siRNA/oligo nucleotides and pulsed according to the manufacturer's instruction. The transfected cells were immediately plated into Petri dishes with DMEM containing 1% FBS and incubated at 37° C. for days. Primary rat embryonic OPCs were transiently transfected with Lipofectamine (Invitrogen) overnight, according to the manufacturer's protocol (see Chew et al., J. Neuroscience 30(33): 11011-11027 (2010)). Amounts of DNA and siRNA/oligo nucleotides were used as recommended by the manufacturer. The control plasmid (pcDNA3) was used as a mock transfected control for miR-146a expression vector transfection, and control siRNA (Ambion, a random mixture of oligonucleotides) was used as a mock transfected control for both transfections with Tβ4siRNA and anti-miR-146a inhibitor nucleotides. The cells (10^4 cells/cm^2) were treated with 0, 25, 50, 100 ng/ml of Tβ4 (RegeneRx Biopharmaceuticals Inc., Rockville, Md.). The cells were incubated at 37° C. and fed every 2 days with fresh medium (DMEM containing 1% FBS for N20.1 cells and BDM for primary rat embryonic OPCs) with and without Tβ4 for 4 days. To test for LPS contamination in Tβ4, the cells were cultured in the presence of the LPS inhibitor polymyxin B (50 μg/ml) followed by treatment with Tβ4. Tβ4 (100 ng/ml) was boiled for 10 minutes in order to denature Tβ4 protein and was used as a negative control. Transfected cells (2×10^4 cells/cm2) including mock transfected controls were treated with and without 100 ng/ml of Tβ4 (RegeneRx Biopharmaceuticals Inc., Rockville, Md.) for 4 days and fresh medium was provided at day 2 with/without Tβ4.
Total protein extracts from the cells were prepared, as known to the skilled artisan. The protein extracts were separated by sodium dodecyl sulfate-polyacrylamide gel electrophoresis for Western blot analysis. For Western blot analysis, rabbit antiserum for MBP (1:200; Dako, Carpinteria, Calif.), monoclonal antibodies (1:1000) for p38MAPK, phosphorylated p38MAPK, c-JUN, phosphorylated c-JUN (1:1000; Upstate, Charlottesville, Va., USA), rabbit polyclonal antibodies (1:1000) for JNK1 and phosphorylated JNK1 (Promega Corporation), goat polyclonal TLR2, rabbit polyclonal TLR4, mouse monoclonal IRAK1 antibodies (1:1000), rabbit polyclonal TRAF6 antibodies (1:1000) mouse monoclonal β-actin antibodies (1:5000; Santa Cruz Biotechnology) and mouse monoclonal α-tubulin antibodies (1:5000; Sigma) were used. Donkey anti-goat, anti-rabbit, and anti-mouse horseradish peroxidase (1:5000; Jackson ImmunoResearch Labs, West Grove, Pa., USA) were used as secondary antibodies. Each experiment was repeated at least three times. The protein bands were quantified based on histogram analysis relative to gel loading marker α-tubulin.

[7] = system: primary rat embryonic OPCs; assay: MBP immunofluorescence cell counting in primary rat embryonic OPCs; settings: Tβ4 100 ng/ml where used; DAPI positive cells as total
Experimental: as §3

mouse N20.1 cells = assay: MBP immunofluorescence cell counting in N20.1 cells; settings: Tβ4 100 ng/ml where used; DAPI positive cells as total
Experimental: as §2
Immunofluorescence staining was performed in N20.1 and primary rat embryonic OPC cells. These cells were fixed with 4% paraformaldehyde for 1 h, washed with PBS, blocked with 1% serum for 1 h and incubated with monoclonal antibodies of OPC marker—O4, (1:1000, Chemicon, Billerica, Mass., USA) and a polyclonal antibody against mature OL marker—MBP (1:200; Dako, Carpinteria, Calif.) at room temperature for one hour, rinsed with PBS and secondary antibodies labeled with cyanine fluorophore (Cy3—red fluorescence) for 1 h. The slides were counterstained with 4′,6-diamidino-2-phenylindole (DAPI—blue fluorescence) and examined under Fluorescent Illumination Microscope (Olympus IX71/IX51, Tokyo, Japan). […]

[8] = second miR named, sentence 'In contrast'

Substance	expression of MBP, mRNA and protein levels [1]	expression of MBP, mRNA and protein levels [2]	expression of miR-146a ([3]; Tβ4 0 to 100 ng/ml, 4 days)	miR-146a expression (data not shown) [3, 8]	expression of miR-146a ([4]; Tβ4 0 to 100 ng/ml, 4 days)	miR-146a expression (data not shown) [4, 8]	expression and phosphorylation of p38MAPK [5]	expression level of MBP (protein) [5]	expression levels of IRAK1 and TRAF6 [5]	expression of TLR2 and TLR4 [5]	phosphorylation of ERK1/2, JNK1 and c-Jun [5]	expression and phosphorylation of p38MAPK [6]	expression level of MBP (protein) [6]	expression levels of IRAK1 and TRAF6 [6]	expression of TLR2 and TLR4 [6]	phosphorylation of ERK1/2, JNK1 and c-Jun [6]	increase in mRNA MBP expression ([1]; Tβ4 100 ng/ml where used)	increase in mRNA MBP expression ([2]; Tβ4 100 ng/ml where used)	number of MBP positive OPCs [7]	number of MBP positive OPCs (mouse N20.1 cells)
boiled denatured Tβ4: Tβ4 (100 ng/ml) boiled for 10 minutes to denature the protein, used as a negative control (SDKPDMAEIEKFDKSKLKKTETQEKNPLPSKETIEQEKQAGES; heat-denatured; UniProt P62328 2-44, looked up) [reference compound]	no effect	no effect																		
thymosin beta 4 (SDKPDMAEIEKFDKSKLKKTETQEKNPLPSKETIEQEKQAGES; listed as Homo sapiens) [Tβ4]	induced	induced	increased in a dose dependent manner	no effect	increased in a dose dependent manner	no effect	induced	increased	markedly reduced	no effect	dose-dependently inhibited	induced	increased	markedly reduced	no effect	dose-dependently inhibited	two-fold increase	two-fold increase	significantly increased	significantly increased
